Experimental findings from US20200206198A1, “CFTR CHANNEL ACTIVATOR FOR USE IN THE TREATMENT AND/OR PREVENTION OF GLUTEN SENSITIVITY CONDITIONS” (priority 2017, published 2020) are described below.

The subject of experiment [1] is Caco-2 cells. The experiment is described as follows: Endosomal trafficking proteins in Caco-2 cells (immunoblot, endosomal fractions). The class given is cell-based, human. On the procedure:
(§1) Human colon adenocarcinoma-derived Caco-2 and T84 cells were obtained from the ATCC. Cells were maintained in T25 flask in Modified Eagle Medium (MEM) for Caco-2, or Ham's F12+DMEM (1:1) for T84, supplemented with 10% fetal bovine serum (FBS), 2 mM Glutamine+1% Non Essential Amino Acids (NEAA) and the antibiotics penicillin\streptomycin (100 units/ml) (all reagents from Lonza) (Luciani, A., et al. 2010. Cells were grown in Transwells (Corning, 3470 or 3460) under the normal condition (Luciani, A., et al. 2012). Briefly, 8×10^4 or 5×10^5 cells were seeded in 6.5-mm diameter or 12-mm diameter, respectively, and grown until the RT reached 800 to 1,200 Ω·cm2. Transwells with a pore size of 0.4 μm were used. Medium in both the apical and basolateral chambers was changed every other day. Cells were treated with 20 μg/ml of either α-gliadin peptide P31-43 or […] or scrambled PGAV or modified P31-43 either biotin-tagged or not, for different time point (from 1 h short challenge up to 24 h). Cells were also treated with 50 or 100 μg/ml of P57-68 or PGAV peptides for 3 h. Caco-2 or T84 cells were also treated with: CFTR potentiators VX-770 (10 μM) or VX-532 (20 μM) (Selleck chemicals) or Genistein (10 μM) (Sigma-Aldrich) or in presence or absence of CFTR inhibitor172 (CFTRinh172, 20 μM) or 3-methyl-adenine (3-MA, 20 μM) (Calbiochem), Z-DON (20 nM, Zedira) or BAPTA-AM (10 μM, Calbiochem).
The whole lysate or membrane fraction proteins of cell lines and mice intestine homogenates were obtained from treated and untreated cells or mice as described. The equal amount of protein were resolved by SDS-PAGE gel and blotted with antibodies against: SQSTM1, (Sigma Aldrich, 108k4767) 1:1000, PPARγ (Santa Cruz Biotechnology, sc7273) 1:500, BECN1 (Abcam, ab58878) 1:1000, CFTR clone M3A7 (Abcam, ab4067) 1:500, phospho-ERK1/2 (php42/44, Cell Signaling Technology, #91101) 1:1000, UVRAG (Santa Cruz Biotechnology sc8215) 1:1000, NHERF-1 (BD, 611161) 1:1000, EZRIN (BD, 610603) 1:1000, hVps34 (SigmaV9764) 1:300, biotin (Abcam, ab1227) 1:2000, PKAr2a (BD, 610625) 1:500, Ubiquitin (Cell Signaling clone P4D1, #3936) 1:1000, CHIP (Calbiochem PC711) 1:500, Caspase-1 p10 (M-20) (Santa Cruz Biotechnology, sc-514) 1:200, NLRP3 (Abcam, ab4207), 1:500, IDO1 (monoclonal; cv152) 1:1000^[80], used as primary antibodies. Normalization was performed by probing the membrane with anti-β-actin (Cell Signaling, #4970) 1:1000, anti-Gapdh (Sigma-Aldrich, G8795) 1:1000 and anti-flottilin (Abcam ab15148) 1:1000 antibodies. Immunoprecipitations of endogenous proteins were performed on 500 μg of lysates from Caco-2 cells. The proteins were incubated for 12-18 h at 4° C. with 10 ug\ml of specific antibody followed by the addition of Protein A/G-agarose beads for 4 h at 4° C. […]

Experiment [2] deals with T1, TG2 (Homo sapiens, UniProt P21980).
T1 construct: Immunoprecipitations of endogenous proteins were performed on 500 μg of lysates from Caco-2 cells; host or cells: Caco-2
T1 sequence (P21980 1-687): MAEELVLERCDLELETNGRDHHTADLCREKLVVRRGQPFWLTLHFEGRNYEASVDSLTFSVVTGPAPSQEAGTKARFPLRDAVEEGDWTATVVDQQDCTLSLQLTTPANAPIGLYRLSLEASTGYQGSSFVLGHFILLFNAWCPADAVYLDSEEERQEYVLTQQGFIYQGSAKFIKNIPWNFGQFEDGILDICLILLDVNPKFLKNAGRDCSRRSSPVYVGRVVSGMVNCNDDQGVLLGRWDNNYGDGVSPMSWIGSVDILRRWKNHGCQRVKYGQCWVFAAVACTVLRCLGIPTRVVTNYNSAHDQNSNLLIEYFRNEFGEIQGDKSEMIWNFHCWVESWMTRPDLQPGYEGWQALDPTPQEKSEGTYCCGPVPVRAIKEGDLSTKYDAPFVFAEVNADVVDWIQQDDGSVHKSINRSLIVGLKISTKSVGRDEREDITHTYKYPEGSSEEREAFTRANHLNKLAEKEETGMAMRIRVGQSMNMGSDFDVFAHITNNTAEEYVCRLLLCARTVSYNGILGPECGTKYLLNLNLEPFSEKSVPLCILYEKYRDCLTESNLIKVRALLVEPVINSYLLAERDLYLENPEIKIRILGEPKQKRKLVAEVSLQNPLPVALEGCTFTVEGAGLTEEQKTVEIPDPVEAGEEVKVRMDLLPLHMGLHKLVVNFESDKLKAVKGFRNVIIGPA
The experiment is described as follows: TG2 interaction and TG2 activity in Caco-2 cells. The class given is cell-based. On the procedure: as §1
The whole lysate or membrane fraction proteins of cell lines and mice intestine homogenates were obtained from treated and untreated cells or mice as described. The equal amount of protein were resolved by SDS-PAGE gel and blotted with antibodies against: SQSTM1, (Sigma Aldrich, 108k4767) 1:1000, PPARγ (Santa Cruz Biotechnology, sc7273) 1:500, BECN1 (Abcam, ab58878) 1:1000, CFTR clone M3A7 (Abcam, ab4067) 1:500, phospho-ERK1/2 (php42/44, Cell Signaling Technology, #91101) 1:1000, UVRAG (Santa Cruz Biotechnology sc8215) 1:1000, NHERF-1 (BD, 611161) 1:1000, EZRIN (BD, 610603) 1:1000, hVps34 (SigmaV9764) 1:300, biotin (Abcam, ab1227) 1:2000, PKAr2a (BD, 610625) 1:500, Ubiquitin (Cell Signaling clone P4D1, #3936) 1:1000, CHIP (Calbiochem PC711) 1:500, Caspase-1 p10 (M-20) (Santa Cruz Biotechnology, sc-514) 1:200, NLRP3 (Abcam, ab4207), 1:500, IDO1 (monoclonal; cv152) 1:1000^[80], used as primary antibodies. Normalization was performed by probing the membrane with anti-β-actin (Cell Signaling, #4970) 1:1000, anti-Gapdh (Sigma-Aldrich, G8795) 1:1000 and anti-flottilin (Abcam ab15148) 1:1000 antibodies. Immunoprecipitations of endogenous proteins were performed on 500 μg of lysates from Caco-2 cells. The proteins were incubated for 12-18 h at 4° C. with 10 ug\ml of specific antibody followed by the addition of Protein A/G-agarose beads for 4 h at 4° C. The beads were then washed three times with lysis buffer and Laemmli's sample buffer was added to the samples. The membranes were then blotted with: CFTR clone CF3 (Abcam, ab2784) 1:1000, TG2 (clone CUB7402; NeoMarkers) 1:1000, CHIP (Calbiochem PC711) 1:500, Ubiquitin (Cell Signaling clone P4D1 3936), isopeptide (Abcam 422) 1:1000, PKAR2 (BD 610625) 1:500.
For detection of complex with biotnylated-P31-43 or immune-complex of glutamime-lysine bonds, the beads were resolved in non-reducing and non-denaturating conditions, and then blotted with Streptavidin-HRP (Sigma 52438) 1:3000 or anti-biotin (Abcam ab2103) 1:2500 and anti-isopeptide (Abcam 422) 1:1000.
TG2 enzymatic activity in Caco-2, treated as described above, was detected: 1) by incubating unfixed sections with biotin-mono-dansylcadaverine (MDC, 10 mM, Molecular Probe) for 1 h at room temperature and then stained with Alexa-fluor488-Streptavidin, as previously described (JI2008/2009) or 2) or by incorporation of 5(biotinamido)pentylamines (BAP) into protein substrates. For BAP-incorporation, 2 mM BAP (Soltec Ventures, B110) were directly added into the medium together with the indicated treatments. […]

With “α-gliadin peptide LGQQQPFPPQQPY (SEQ ID 1), induces an enterocyte stress response (P31-43 sequence of alpha-gliadin)”, in experiment [1], the “Rab5 and Rab7 levels in endosomal protein fractions” value is “decreased”; the “total cellular abundance of BECN1, hVps34 and UVRAG” value was “reduced the total cellular abundance”. Also, the “TG2-mediated glutamine-lysine bonds in CFTR immunoprecipitates” value in experiment [2] (Caco-2 cells) is reported as “induced the formation of TG2-mediated glutamime-lysine bonds”. In addition, the “covalent interaction with TG2” value in experiment [2] (Caco-2 cells, shortly upon challenge) is “covalently interacted with TG2”. The “interaction between TG2 and CFTR by co-immunoprecipitation” value in experiment [2] (cells incubated with peptide) was “stimulated the interaction between TG2 and CFTR”.
As for `CC(C)(C)c1cc(C(C)(C)C)c(NC(=O)c2c[nH]c3ccccc3c2=O)cc1O` [VX-770, N-(2,4-di-tert-butyl-5-hydroxyphenyl)-4-oxo-1,4-dihydroquinoline-3-carboxamide], in experiment [1] (lost if 3-MA or CFTR inhibitor added), the “effect on P31-43-induced reduction of BECN1, hVps34, UVRAG, Rab5 and Rab7” value is reported as “counteracted”. Further, in experiment [2] (Caco-2 cells), the “effect on P31-43-induced interaction of TG2 and CFTR” value is “abolished the P31-43-induced interaction of TG2 and CFTR”. The “effect on P31-43-induced TG2 activation” value in experiment [2] (Caco-2 cells preincubated with VX-770) was “negated the capability of P31-43 5 to induce TG2 activation”. In experiment [2] (Caco-2 cells pulsed with Ca2+), the “impact on TG2-mediated transamidation reactions” value is on record as “has no impact on TG2mediated transamidation reactions”.
